Data: PubChem BioAssay AID1918955 (Molecular Pharmacology Branch, DTP, NCI, 2023)

Tested on: NCI/ADR-RES complex spheroid viability
Test: Anticancer human tumor NCI/ADR-RES cell line growth inhibition;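 further: spheroids exposed to compounds for 7 days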;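 on viability, T/C: 100% = DMSO vehicle treated spheroids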
Conditions: for IC50: curve of first compound; for viability, T/C: stronger effect = lower value
Method in brief: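 Multicellular complex spheroids of tumor cells with human endothelial cells (HUVEC) and mesenchymal stem cells; the LSD1 inhibitor iadademstat was combined with standard-of-care or investigational agents. Top concentration at or near clinical Cmax, half-log dilutions; final DMSO ≤0.25%.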

[1] = second compound 0.1 µM, first compound 0.0316 µM
[2] = second compound 0.1 µM, first compound 0.1 µM
[3] = second compound 0.316 µM, first compound 0.0316 µM
[4] = second compound 0.316 µM, first compound 0.1 µM
[5] = second compound 1 µM, first compound 0.0316 µM
[6] = second compound 1 µM, first compound 0.1 µM
[7] = second compound 3.16 µM, first compound 0.0316 µM
[8] = second compound 3.16 µM, first compound 0.1 µM
[9] = second compound 10 µM, first compound 0.0316 µM
[10] = second compound 10 µM, first compound 0.1 µM

## CC1(C)CCC(CN2CCN(c3ccc(C(=O)NS(=O)(=O)c4ccc(NCC5CCOCC5)c([N+](=O)[O-])c4)c(Oc4cnc5[nH]ccc5c4)c3)CC2)=C(c2ccc(Cl)cc2)C1 + NC1CC1c1ccc(-c2cccc(O)c2)cc1
Second compound 0.1 µM
  IC50: > 10 µM
Second compound 0.316 µM
  IC50: > 10 µM
Second compound 1 µM
  IC50: > 10 µM
Second compound 3.16 µM
  IC50: > 10 µM
Second compound 10 µM
  IC50: > 10 µM
[1]
  viability, T/C: 107%
[2]
  viability, T/C: 109%
Second compound 0.1 µM, first compound 0.316 µM
  viability, T/C: 109%
Second compound 0.1 µM, first compound 1 µM
  viability, T/C: 104%
Second compound 0.1 µM, first compound 3.16 µM
  viability, T/C: 101%
Second compound 0.1 µM, first compound 10 µM
  viability, T/C: 95.6%
[3]
  viability, T/C: 110%
[4]
  viability, T/C: 111%
Second compound 0.316 µM, first compound 0.316 µM
  viability, T/C: 113%
Second compound 0.316 µM, first compound 1 µM
  viability, T/C: 101%
Second compound 0.316 µM, first compound 3.16 µM
  viability, T/C: 103%
Second compound 0.316 µM, first compound 10 µM
  viability, T/C: 89.7%
[5]
  viability, T/C: 103%
[6]
  viability, T/C: 106%
Second compound 1 µM, first compound 0.316 µM
  viability, T/C: 103%
Second compound 1 µM, first compound 1 µM
  viability, T/C: 99.8%
Second compound 1 µM, first compound 3.16 µM
  viability, T/C: 101%
Second compound 1 µM, first compound 10 µM
  viability, T/C: 99.4%
[7]
  viability, T/C: 97.1%
[8]
  viability, T/C: 97.8%
Second compound 3.16 µM, first compound 0.316 µM
  viability, T/C: 102%
Second compound 3.16 µM, first compound 1 µM
  viability, T/C: 108%
Second compound 3.16 µM, first compound 3.16 µM
  viability, T/C: 98.6%
Second compound 3.16 µM, first compound 10 µM
  viability, T/C: 89.8%
[9]
  viability, T/C: 88.6%
[10]
  viability, T/C: 98.4%
Second compound 10 µM, first compound 0.316 µM
  viability, T/C: 92.3%
Second compound 10 µM, first compound 1 µM
  viability, T/C: 94.5%
Second compound 10 µM, first compound 3.16 µM
  viability, T/C: 81.6%
Second compound 10 µM, first compound 10 µM
  viability, T/C: 75.7%

## Cn1ncnc1C1c2n[nH]c(=O)c3cc(F)cc(c23)NC1c1ccc(F)cc1 (stereo not given) + NC1CC1c1ccc(-c2cccc(O)c2)cc1
Second compound 0.1 µM
  IC50: > 0.1 µM
Second compound 0.316 µM
  IC50: > 0.1 µM
Second compound 1 µM
  IC50: > 0.1 µM
Second compound 3.16 µM
  IC50: > 0.1 µM
Second compound 10 µM
  IC50: > 0.1 µM
Second compound 0.1 µM, first compound 0.000316 µM
  viability, T/C: 101%
Second compound 0.1 µM, first compound 0.001 µM
  viability, T/C: 104%
Second compound 0.1 µM, first compound 0.00316 µM
  viability, T/C: 106%
Second compound 0.1 µM, first compound 0.01 µM
  viability, T/C: 103%
[1]
  viability, T/C: 104%
[2]
  viability, T/C: 97%
Second compound 0.316 µM, first compound 0.000316 µM
  viability, T/C: 104%
Second compound 0.316 µM, first compound 0.001 µM
  viability, T/C: 107%
Second compound 0.316 µM, first compound 0.00316 µM
  viability, T/C: 104%
Second compound 0.316 µM, first compound 0.01 µM
  viability, T/C: 110%
[3]
  viability, T/C: 110%
[4]
  viability, T/C: 105%
Second compound 1 µM, first compound 0.000316 µM
  viability, T/C: 98.2%
Second compound 1 µM, first compound 0.001 µM
  viability, T/C: 101%
Second compound 1 µM, first compound 0.00316 µM
  viability, T/C: 109%
Second compound 1 µM, first compound 0.01 µM
  viability, T/C: 95.8%
[5]
  viability, T/C: 100%
[6]
  viability, T/C: 102%
Second compound 3.16 µM, first compound 0.000316 µM
  viability, T/C: 105%
Second compound 3.16 µM, first compound 0.001 µM
  viability, T/C: 99.3%
Second compound 3.16 µM, first compound 0.00316 µM
  viability, T/C: 100%
Second compound 3.16 µM, first compound 0.01 µM
  viability, T/C: 97%
[7]
  viability, T/C: 97.3%
[8]
  viability, T/C: 93.8%
Second compound 10 µM, first compound 0.000316 µM
  viability, T/C: 97.1%
Second compound 10 µM, first compound 0.001 µM
  viability, T/C: 91.1%
Second compound 10 µM, first compound 0.00316 µM
  viability, T/C: 90.5%
Second compound 10 µM, first compound 0.01 µM
  viability, T/C: 96.8%
[9]
  viability, T/C: 94.6%
[10]
  viability, T/C: 85.3%
